From the NIST ThermoML archive (doi:10.1007/s10765-007-0186-y)
Numbers after ± are expanded uncertainties.

Assay: molar heat capacity at constant pressure
Details: Gas, Flow calorimetry

CC(F)(F)F [1,1,1-trifluoroethane]
Details | molar heat capacity at constant pressure [J/K/mol]
311.15 K, 1600 kPa | 120.18 ± 1.7
317.15 K, 1800 kPa | 125.89 ± 2.9
318.15 K, 1600 kPa | 111.77 ± 2.5
318.15 K, 2000 kPa | 139.51 ± 3.1
324.15 K, 2200 kPa | 145.31 ± 3.2
326.15 K, 2400 kPa | 161.69 ± 4.3
327.15 K, 2400 kPa | 160.77 ± 2.4
338.15 K, 2400 kPa | 130.6 ± 5.4
341.15 K, 2200 kPa | 117.24 ± 3.7
343.15 K, 2400 kPa | 124.8 ± 3.5
